Source: patent publication US10604696B2, “Process for acidizing” (Cleansorb Limited, priority 2014, dated 2020)

Key:
[1] = Calcium salt precipitation following acidising of calcium carbonate in fresh water; type: physicochemical
Excerpt: The dissolving capacities of delta glucono lactone and […] (a formic acid precursor commercially available from Cleansorb Limited of Guildford, UK) and their capacity for precipitation of calcium salts is shown in Table 1.

[2] = Calcium salt precipitation at 5° C. from spent acidizing solutions; type: physicochemical; conditions: 2.7 g CaCO3 in 100 ml, 65 hours at approximately 25° C., then 20 hours at 5° C.
Method: 100 ml solutions were prepared in deionised water in 100 ml Duran bottles: 2.7 g of laboratory grade CaCO3 was added to each solution. Acidizing was allowed to proceed at room temperature (approximately 25° C.) for 65 hours. To simulate the effect of low temperature spent acidizing solutions were placed in a refrigerator at 5° C. and observed at 20 hours for the presence of any precipitate.

With `O=C1O[C@H](CO)[C@@H](O)[C@H](O)[C@H]1O` [Glucono delta lactone, D-(+)-Gluconic acid δ-lactone] the “Calcium salt precipitated following acidising of calcium carbonate in fresh water” value ([1]; acid precursor used at 1% w/v) was “No”, the “Calcium salt precipitated following acidising of calcium carbonate in fresh water” value ([1]; acid precursor used at 2% w/v) was “No” and the “Calcium salt precipitated following acidising of calcium carbonate in fresh water” value ([1]; acid precursor used at 3% w/v) was “Yes”. For the same compound, the “Calcium salt precipitated following acidising of calcium carbonate in fresh water” value ([1]; acid precursor used at 5% w/v) was “Yes”, the “Calcium salt precipitated following acidising of calcium carbonate in fresh water” value ([1]; acid precursor used at 10% w/v) was “Yes” and the “Calcium salt precipitated at 5° C. following acidising” value ([2]; 10% w/v glucono delta lactone plus sodium acetate 5% w/v) was “No”. For the same compound, the “Calcium salt precipitated at 5° C. following acidising” value ([2]; 10% w/v glucono delta lactone plus sodium lactate 60% solution 10.8% w/v) was “No”, the “Calcium salt precipitated at 5° C. following acidising” value ([2]; 10% w/v glucono delta lactone, no additional component) was “Yes” and the “Calcium salt precipitated at 5° C. following acidising” value ([2]; 22% w/v glucono delta lactone plus sodium acetate 5% w/v) was “No”. For the same compound, the “Calcium salt precipitated at 5° C. following acidising” value ([2]; 22% w/v glucono delta lactone plus sodium lactate 60% solution 10.8% w/v) was “No” and the “Calcium salt precipitated at 5° C. following acidising” value ([2]; 22% w/v glucono delta lactone, no additional component) was “Yes”.
